From patent publication US12655116B2, “Substituted isophthalic acid diamides” (Bayer Aktiengesellschaft, priority 2020, dated 2026)

Experiments:
PHBPU [1] = assay: Pre-emergence herbicidal action against PHBPU; type: in vivo, Pharbitis purpurea; conditions: dosage 80 g/ha
Procedure, shortened: (§1)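 Pre-emergence soil-surface spray of formulated compound (WP or EC; 600 to 800 l/ha; 0.2% wetting agent) over seeds sown in sandy loam. After 3 weeks under greenhouse conditions, damage is estimated visually in percent against untreated plants.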

ALOMY [2] = assay: Pre-emergence herbicidal action against ALOMY; type: in vivo, Alopecurus myosuroides; conditions: 80 g/ha, pre-emergence, scored visually after 3 weeks vs untreated controls (100% = plants have died, 0% = like control plants)
Procedure, shortened: as §1

ECHCG [3] = assay: Pre-emergence herbicidal action against ECHCG; type: in vivo, Echinochloa crus-galli
Procedure, shortened: as §1

MATIN [4] = assay: Pre-emergence herbicidal action against MATIN; type: in vivo, Matricaria inodora
Procedure, shortened: as §1

SETVI [5] = assay: Post-emergence herbicidal action against SETVI; type: in vivo, Setaria viridis; conditions: dosage 20 g/ha
Procedure, shortened: (§2)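 Greenhouse plants in sandy loam were sprayed at the one-leaf stage, 2 to 3 weeks after sowing, with WP or EC formulations as aqueous suspension or emulsion (600 to 800 l/ha water, 0.2% wetting agent). Visual damage was scored about 3 weeks later versus untreated controls, 0% = like control, 100% = dead.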

ECHCG [6] = assay: Post-emergence herbicidal action against ECHCG; type: in vivo, Echinochloa crus-galli
Procedure, shortened: as §2

AMARE [7] = assay: Pre-emergence herbicidal action against AMARE; type: in vivo, Amaranthus retroflexus
Procedure, shortened: as §1

DIGSA [8] = assay: Pre-emergence herbicidal action against DIGSA; type: in vivo, Digitaria sanguinalis
Procedure, shortened: as §1

ABUTH [9] = assay: Pre-emergence herbicidal action against ABUTH; type: in vivo, Abutilon theophrasti; conditions: for Pre-emergence action against ABUTH (herbicidal activity in percent): dosage 20 g/ha, scored visually after 3 weeks vs untreated controls, 100% = plants have died, 0% = like control plants
Procedure, shortened: as §1

VERPE [10] = assay: Post-emergence herbicidal action against VERPE; type: in vivo, Veronica persica
Procedure, shortened: as §2

AMARE [11] = assay: Post-emergence herbicidal action against AMARE; type: in vivo, Amaranthus retroflexus; conditions: 20 g/ha, visual assessment about 3 weeks after treatment, 100% = plants have died, 0% = like control plants
Procedure, shortened: as §2

PHBPU [12] = assay: Post-emergence herbicidal action against PHBPU; type: in vivo, Pharbitis purpurea
Procedure, shortened: as §2

VIOTR [13] = assay: Post-emergence herbicidal action against VIOTR; type: in vivo, Viola tricolor
Procedure, shortened: as §2

VERPE [14] = assay: Pre-emergence herbicidal action against VERPE; type: in vivo, Veronica persica; conditions: dosage 80 g/ha
Procedure, shortened: as §1

VIOTR [15] = assay: Pre-emergence herbicidal action against VIOTR; type: in vivo, Viola tricolor
Procedure, shortened: as §1

DIGSA [16] = assay: Post-emergence herbicidal action against DIGSA; type: in vivo, Digitaria sanguinalis; conditions: 20 g/ha
Procedure, shortened: as §2

AVEFA = assay: Pre-emergence herbicidal action against AVEFA; type: in vivo, Avena fatua; conditions: for Pre-emergence action against AVEFA in %: 80 g/ha
Procedure, shortened: as §1

ABUTH [17] = assay: Post-emergence herbicidal action against ABUTH; type: in vivo, Abutilon theophrasti; conditions: dosage 20 g/ha, visual assessment about 3 weeks after treatment vs untreated controls
Procedure, shortened: as §2

MATIN [18] = assay: Post-emergence herbicidal action against MATIN; type: in vivo, Matricaria inodora
Procedure, shortened: as §2

SETVI [19] = assay: Pre-emergence herbicidal action against SETVI; type: in vivo, Setaria viridis; conditions: dosage 80 g/ha
Procedure, shortened: as §1

ALOMY [20] = assay: Post-emergence herbicidal action against ALOMY; type: in vivo, Alopecurus myosuroides; conditions: dosage 20 g/ha, visual assessment about 3 weeks after treatment vs untreated controls
Procedure, shortened: as §2

POLCO = assay: Pre-emergence herbicidal action against POLCO; type: in vivo, Polygonum convolvulus
Description: Seeds of monocotyledonous and dicotyledonous weed plants and crop plants are laid out in sandy loam soil in wood-fiber pots and covered with soil. The compounds of the invention, formulated in the form of wettable powders (WP) or as emulsion concentrates (EC), are then applied to the surface of the covering soil in the form of an aqueous suspension or emulsion at a water application rate equivalent to 600 to 800 l/ha, with addition of 0.2% wetting agent. After the treatment, the pots are placed in a greenhouse and kept under good growth conditions for the trial plants. The damage to the test plants is scored visually after a test period of 3 weeks by comparison with untreated controls (herbicidal activity in percent (%): 100% activity=the plants have died, 0% activity=like control plants). […] The tables below illustrate, in an illustrative manner, the post-emergence herbicidal action of the compounds of the invention, the herbicidal activity being stated in percent.

[21] = 20 g/ha, scored visually after 3 weeks vs untreated controls, 100% = plants have died, 0% = like control plants
[22] = 80 g/ha, scored visually after 3 weeks vs untreated controls (100% = plants have died, 0% = like control plants)

| SMILES | Pre-emergence action against ALOMY (herbicidal activity) (ALOMY [2]) | Pre-emergence action against ECHCG in % (ECHCG [3]; 80 g/ha) | Pre-emergence action against MATIN in % (MATIN [4]; dosage 20 g/ha) | Pre-emergence action against MATIN in % (MATIN [4]; dosage 80 g/ha) | Pre-emergence action against AMARE in % (AMARE [7]; [21]) | Pre-emergence action against AMARE in % (AMARE [7]; [22]) | Pre-emergence action against DIGSA in % (DIGSA [8]; dosage 20 g/ha) | Pre-emergence action against DIGSA in % (DIGSA [8]; dosage 80 g/ha) | Pre-emergence action against ABUTH (herbicidal activity) (ABUTH [9]; [22]) | Pre-emergence action against ABUTH (herbicidal activity in percent) (ABUTH [9]) | Post-emergence action against PHBPU in % (PHBPU [12]; dosage 20 g/ha) | Post-emergence action against VIOTR in % (VIOTR [13]; 20 g/ha) | Pre-emergence action against VERPE in % (VERPE [14]) | Pre-emergence action against VIOTR in % (VIOTR [15]; dosage 80 g/ha) | Pre-emergence action against AVEFA in % (AVEFA) | Pre-emergence action against SETVI in % (SETVI [19]) | also measured |
| --- | --- | --- | --- | --- | --- | --- | --- | --- | --- | --- | --- | --- | --- | --- | --- | --- | --- |
| CC(NC(=O)c1c(C(F)(F)F)ccc(C(=O)Nc2nnnn2C)c1Cl)C1CC1 (centres unmarked) [Example 1-135] | 90% | 100% | 90% | 100% | 100% | 100% | 90% | 100% | 100% | 100% | 90% | 90% | 90% | 100% | 100% | 100% | Pre-emergence action against PHBPU in % (PHBPU [1]): 80%; Pre-emergence action against ECHCG in % (ECHCG [3]; 20 g/ha): 80%; Post-emergence action against SETVI in % (SETVI [5]): 80%; Post-emergence action against ECHCG in % (ECHCG [6]; dosage 5 g/ha): 80%; Post-emergence action against ECHCG in % (ECHCG [6]; dosage 20 g/ha): 100%; Post-emergence action against VERPE in % (VERPE [10]; 5 g/ha): 80%; Post-emergence action against VERPE in % (VERPE [10]; 20 g/ha): 90%; Post-emergence action at 20 g/ha against AMARE in % (AMARE [11]): 90%; Post-emergence action against VIOTR in % (VIOTR [13]; 5 g/ha): 80%; Post-emergence action against DIGSA (DIGSA [16]): 90%; Pre-emergence action against AVEFA (AVEFA; 20 g/ha, scored visually after 3 weeks, 100% = plants have died, 0% = like control plants): 80%; Post-emergence action against ABUTH in % (ABUTH [17]): 80%; Post-emergence action against MATIN in % (MATIN [18]; dosage 5 g/ha): 80%; Post-emergence action against MATIN in % (MATIN [18]; dosage 20 g/ha): 90%; Post-emergence action against ALOMY in % (ALOMY [20]): 90% |
| Cn1nnnc1NC(=O)c1ccc(Br)c(C(=O)NCC2CC2)c1Cl [Example 1-180] | 100% | 100% | 90% | 100% | 100% | 100% | 100% | 100% | 100% | 90% | 90% | 90% | 80% | 100% | 80% | 90% | Post-emergence action against PHBPU in % (PHBPU [12]; dosage 5 g/ha): 90%; Pre-emergence action against VIOTR in % (VIOTR [15]; dosage 20 g/ha): 80%; Pre-emergence action against POLCO in % (POLCO; dosage 80 g/ha): 100% |
| CC(=O)NC(=O)c1c(C(F)(F)F)ccc(C(=O)Nc2nnnn2C)c1Cl [Example 1-337] |  |  |  |  |  |  |  |  |  |  |  |  |  |  |  |  | pest or weed control at 20 g/ha (AMARE [7]; Amaranthus retroflexus, 504 h, 20 g/ha, scored visually after 3 weeks vs untreated controls, 100% = plants have died, 0% = like control plants): 90%; pest or weed control at 80 g/ha (AMARE [7]; Amaranthus retroflexus, 504 h, 80 g/ha, scored visually after 3 weeks vs untreated controls, 100% = plants have died, 0% = like control plants): 100%; pest or weed control at 80 g/ha (DIGSA [8]; Digitaria sanguinalis, 504 h, dosage 80 g/ha): 100%; pest or weed control at 80 g/ha (ABUTH [9]; Abutilon theophrasti, 504 h, 80 g/ha, scored visually after 3 weeks vs untreated controls (100% = plants have died, 0% = like control plants)): 100%; pest or weed control at 20 g/ha (VIOTR [13]; Viola tricolor, 504 h, 20 g/ha): 80%; pest or weed control at 80 g/ha (VERPE [14]; Veronica persica, 504 h): 90%; pest or weed control at 20 g/ha (VIOTR [15]; Viola tricolor, 504 h, dosage 20 g/ha): 80%; pest or weed control at 80 g/ha (VIOTR [15]; Viola tricolor, 504 h, dosage 80 g/ha): 80%; pest or weed control at 20 g/ha (POLCO; Fallopia convolvulus, 504 h, dosage 20 g/ha): 80%; pest or weed control at 80 g/ha (POLCO; Fallopia convolvulus, 504 h, dosage 80 g/ha): 80%; pest or weed control at 20 g/ha (ABUTH [17]; Abutilon theophrasti, 504 h): 80%; pest or weed control at 80 g/ha (SETVI [19]; Setaria viridis, 504 h): 90% |
